# In patent publication US9340590B2 (priority 2011, dated 2016):
# Like-named read-outs stand apart in the source and are kept apart here. Positions of bridges follow the written chain, without caps; N, C: chain ends. Non-standard residues stand in square brackets, D forms with d. Residues, ends and D or L forms follow the SMILES beside them. 1Nal = N[C@@H](Cc1cccc2ccccc12)C(=O)O; Lys(Me2) = CN(C)CCCC[C@H](N)C(=O)O
# Tests used:
# hNav1.5 = hNav1.5 (Homo sapiens, UniProt Q14524); assay: cell-based
# Chain of hNav1.5 (Q14524 whole entry, looked up): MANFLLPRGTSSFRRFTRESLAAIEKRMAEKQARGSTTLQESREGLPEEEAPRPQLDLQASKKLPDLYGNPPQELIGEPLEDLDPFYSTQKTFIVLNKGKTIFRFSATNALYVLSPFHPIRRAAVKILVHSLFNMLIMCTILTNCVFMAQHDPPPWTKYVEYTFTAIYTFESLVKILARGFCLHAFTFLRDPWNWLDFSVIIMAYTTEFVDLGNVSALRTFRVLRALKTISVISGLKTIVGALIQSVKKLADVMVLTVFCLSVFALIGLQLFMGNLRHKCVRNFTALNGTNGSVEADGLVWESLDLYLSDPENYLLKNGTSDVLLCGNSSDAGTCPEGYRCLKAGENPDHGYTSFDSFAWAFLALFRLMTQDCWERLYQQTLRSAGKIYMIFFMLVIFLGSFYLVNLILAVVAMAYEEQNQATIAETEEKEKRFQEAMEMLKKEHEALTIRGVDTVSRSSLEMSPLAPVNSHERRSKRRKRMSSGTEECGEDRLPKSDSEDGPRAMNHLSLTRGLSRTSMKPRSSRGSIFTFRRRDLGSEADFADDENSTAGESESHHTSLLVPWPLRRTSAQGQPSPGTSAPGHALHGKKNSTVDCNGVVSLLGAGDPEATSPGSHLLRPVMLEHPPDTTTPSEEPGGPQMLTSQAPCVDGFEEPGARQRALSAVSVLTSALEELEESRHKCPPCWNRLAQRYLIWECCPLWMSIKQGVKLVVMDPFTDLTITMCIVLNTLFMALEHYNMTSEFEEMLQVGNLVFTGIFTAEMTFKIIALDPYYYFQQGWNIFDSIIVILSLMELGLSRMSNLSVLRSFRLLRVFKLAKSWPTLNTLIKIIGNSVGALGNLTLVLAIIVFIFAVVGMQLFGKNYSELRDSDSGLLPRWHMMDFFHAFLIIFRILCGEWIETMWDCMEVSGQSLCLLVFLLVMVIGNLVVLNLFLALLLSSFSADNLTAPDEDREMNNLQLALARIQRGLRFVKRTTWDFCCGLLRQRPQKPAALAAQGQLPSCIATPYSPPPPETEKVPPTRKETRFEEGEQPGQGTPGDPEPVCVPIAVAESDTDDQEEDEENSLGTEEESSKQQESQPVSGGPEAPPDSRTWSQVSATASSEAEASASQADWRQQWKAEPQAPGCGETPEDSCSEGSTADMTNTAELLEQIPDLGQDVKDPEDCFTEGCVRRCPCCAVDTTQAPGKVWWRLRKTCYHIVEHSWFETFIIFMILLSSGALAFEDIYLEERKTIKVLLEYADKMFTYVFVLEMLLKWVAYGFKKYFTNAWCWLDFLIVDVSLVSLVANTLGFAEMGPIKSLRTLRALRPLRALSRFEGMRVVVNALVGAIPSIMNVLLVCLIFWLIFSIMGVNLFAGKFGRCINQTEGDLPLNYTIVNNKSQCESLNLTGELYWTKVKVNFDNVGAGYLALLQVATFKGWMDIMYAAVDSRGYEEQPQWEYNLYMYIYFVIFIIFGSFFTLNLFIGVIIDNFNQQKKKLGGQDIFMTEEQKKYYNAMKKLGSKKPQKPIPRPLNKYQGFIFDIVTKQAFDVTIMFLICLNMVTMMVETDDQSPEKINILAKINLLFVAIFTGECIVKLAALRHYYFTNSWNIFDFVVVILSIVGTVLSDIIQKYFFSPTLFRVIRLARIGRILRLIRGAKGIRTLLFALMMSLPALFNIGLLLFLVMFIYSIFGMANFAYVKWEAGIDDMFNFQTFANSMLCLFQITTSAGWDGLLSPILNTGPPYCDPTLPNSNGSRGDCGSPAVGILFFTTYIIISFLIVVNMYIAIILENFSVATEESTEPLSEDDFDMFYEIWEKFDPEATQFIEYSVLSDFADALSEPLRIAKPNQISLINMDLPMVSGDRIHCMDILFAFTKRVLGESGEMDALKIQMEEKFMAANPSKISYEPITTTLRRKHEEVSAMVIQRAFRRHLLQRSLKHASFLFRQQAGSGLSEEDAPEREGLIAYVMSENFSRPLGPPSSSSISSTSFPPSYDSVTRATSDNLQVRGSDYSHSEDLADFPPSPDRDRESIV
# hNav1.3 = hNav1.3 (Homo sapiens, UniProt Q9NY46); assay: cell-based; settings: IonWorks Quattro, read-out: IWQ Use Nav1.3
# Chain of hNav1.3 (Q9NY46 whole entry, looked up): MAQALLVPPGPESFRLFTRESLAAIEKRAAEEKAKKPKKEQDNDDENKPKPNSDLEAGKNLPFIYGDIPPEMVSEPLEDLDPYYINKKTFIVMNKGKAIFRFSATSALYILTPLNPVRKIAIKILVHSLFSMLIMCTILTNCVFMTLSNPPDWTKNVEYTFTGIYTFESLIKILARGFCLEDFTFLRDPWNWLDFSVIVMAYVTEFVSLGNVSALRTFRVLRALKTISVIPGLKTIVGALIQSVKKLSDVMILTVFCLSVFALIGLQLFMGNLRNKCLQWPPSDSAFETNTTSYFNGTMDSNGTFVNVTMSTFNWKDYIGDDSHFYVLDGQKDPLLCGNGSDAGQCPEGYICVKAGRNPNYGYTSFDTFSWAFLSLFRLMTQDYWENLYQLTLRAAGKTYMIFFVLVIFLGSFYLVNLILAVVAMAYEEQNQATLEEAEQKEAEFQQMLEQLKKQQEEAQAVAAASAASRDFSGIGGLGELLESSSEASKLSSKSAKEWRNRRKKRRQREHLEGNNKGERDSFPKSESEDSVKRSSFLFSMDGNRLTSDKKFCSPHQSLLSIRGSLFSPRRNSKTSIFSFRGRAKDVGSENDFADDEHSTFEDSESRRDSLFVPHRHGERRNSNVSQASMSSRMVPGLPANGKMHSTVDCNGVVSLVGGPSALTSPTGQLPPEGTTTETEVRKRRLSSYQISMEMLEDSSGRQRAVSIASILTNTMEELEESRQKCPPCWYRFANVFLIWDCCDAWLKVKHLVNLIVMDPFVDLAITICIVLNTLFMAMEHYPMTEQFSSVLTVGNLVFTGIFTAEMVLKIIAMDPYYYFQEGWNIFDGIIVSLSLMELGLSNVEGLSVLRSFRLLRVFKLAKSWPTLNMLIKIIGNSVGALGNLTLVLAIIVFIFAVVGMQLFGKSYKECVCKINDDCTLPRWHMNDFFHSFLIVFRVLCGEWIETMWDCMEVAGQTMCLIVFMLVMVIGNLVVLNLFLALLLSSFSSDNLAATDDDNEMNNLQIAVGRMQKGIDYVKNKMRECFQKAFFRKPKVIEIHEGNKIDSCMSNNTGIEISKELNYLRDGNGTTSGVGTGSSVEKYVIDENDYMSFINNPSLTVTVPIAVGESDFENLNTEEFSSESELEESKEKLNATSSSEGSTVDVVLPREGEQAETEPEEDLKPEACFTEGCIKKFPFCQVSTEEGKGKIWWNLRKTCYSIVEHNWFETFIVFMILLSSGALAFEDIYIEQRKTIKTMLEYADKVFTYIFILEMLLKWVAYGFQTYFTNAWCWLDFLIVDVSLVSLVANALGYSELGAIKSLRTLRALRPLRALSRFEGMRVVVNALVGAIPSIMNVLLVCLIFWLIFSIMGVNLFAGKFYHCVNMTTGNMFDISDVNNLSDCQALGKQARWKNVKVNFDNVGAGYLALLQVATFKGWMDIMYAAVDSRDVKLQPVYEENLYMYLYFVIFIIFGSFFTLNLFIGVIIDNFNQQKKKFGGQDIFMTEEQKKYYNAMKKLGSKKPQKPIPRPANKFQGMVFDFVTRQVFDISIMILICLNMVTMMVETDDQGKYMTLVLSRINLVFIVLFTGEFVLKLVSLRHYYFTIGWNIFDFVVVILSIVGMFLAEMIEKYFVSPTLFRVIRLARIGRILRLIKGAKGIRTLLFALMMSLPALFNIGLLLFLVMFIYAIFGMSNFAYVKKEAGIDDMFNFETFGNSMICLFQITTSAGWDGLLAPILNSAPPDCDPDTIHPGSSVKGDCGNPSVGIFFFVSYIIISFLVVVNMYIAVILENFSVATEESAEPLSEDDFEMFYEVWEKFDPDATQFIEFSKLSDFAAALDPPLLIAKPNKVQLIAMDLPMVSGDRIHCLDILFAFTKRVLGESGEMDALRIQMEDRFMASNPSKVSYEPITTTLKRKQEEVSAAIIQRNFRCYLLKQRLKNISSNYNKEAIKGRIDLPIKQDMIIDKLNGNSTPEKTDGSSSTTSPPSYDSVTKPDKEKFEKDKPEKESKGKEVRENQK
# [1] = IonWorks Quattro, Use, read-out: IWQ Use Nav1.5
smiles,measurement,setting,value
"CC[C@H](C)[C@@H]1NC(=O)[C@@H]2CSSC[C@@H]3NC(=O)[C@H](C(C)C)NC(=O)[C@H](CC(C)C)NC(=O)[C@H](CC(N)=O)NC(=O)[C@@H]4CCCN4C(=O)[C@H](CCCNC(=N)N)NC(=O)[C@H](CSSC[C@H](NC(=O)[C@@H](N)CC(=O)O)C(=O)N[C@@H](CC(C)C)C(=O)NCC(=O)N[C@@H](Cc4ccccc4)C(=O)N[C@@H](CCSC)C(=O)N[C@@H](CCCNC(=N)N)C(=O)N[C@@H](CCCCN)C(=O)N2)NC(=O)[C@H](CSSC[C@@H](C(=O)N[C@@H](CCCCN)C(=O)N[C@@H](CCCNC(=N)N)C(=O)N[C@H](C(=O)N[C@@H](Cc2ccccc2)C(N)=O)C(C)C)NC(=O)[C@H](Cc2c[nH]c4ccccc24)NC(=O)[C@H](CCCCN)NC(=O)[C@H](Cc2cnc[nH]2)NC(=O)[C@H]([C@@H](C)O)NC(=O)[C@H](CCCNC(=N)N)NC(=O)[C@H](CO)NC3=O)NC(=O)[C@H](CCCCN)NC(=O)[C@H](CC(=O)O)NC(=O)[C@H](CC(N)=O)NC(=O)[C@H](CC(=O)O)NC(=O)[C@@H]2CCCN2C1=O [compound 159] (H-DCLGFMRKCIPDNDKCCRPNLVCSRTHKWCKRVF-NH2; disulfide 2-17, 9-23, 16-30)",IC50,hNav1.5; IWQ Use Nav1.5 (μM),8.65 µM
same,IC50,"hNav1.3; Table 25, use, […]",870 nM
"CC[C@H](C)[C@@H]1NC(=O)[C@@H]2CSSC[C@@H]3NC(=O)[C@H](C(C)C)NC(=O)[C@H](CC(C)C)NC(=O)[C@H](CC(N)=O)NC(=O)[C@@H]4CCCN4C(=O)[C@H](CCCNC(=N)N)NC(=O)[C@H](CSSC[C@H](NC(=O)[C@@H](N)CC(=O)O)C(=O)N[C@@H](CC(C)C)C(=O)NCC(=O)N[C@@H](Cc4ccccc4)C(=O)N[C@@H](CCSC)C(=O)N[C@@H](CCCNC(=N)N)C(=O)N[C@@H](CCCCN)C(=O)N2)NC(=O)[C@H](CSSC[C@@H](C(=O)N[C@@H](CCCCN)C(=O)N[C@@H](Cc2cccc4ccccc24)C(=O)N[C@H](C(=O)N[C@@H](Cc2ccccc2)C(N)=O)C(C)C)NC(=O)[C@H](Cc2c[nH]c4ccccc24)NC(=O)[C@H](CCCCN)NC(=O)[C@H](Cc2cnc[nH]2)NC(=O)[C@H]([C@@H](C)O)NC(=O)[C@H](CCCNC(=N)N)NC(=O)[C@H](CO)NC3=O)NC(=O)[C@H](CCCCN)NC(=O)[C@H](CC(=O)O)NC(=O)[C@H](CC(N)=O)NC(=O)[C@H](CC(=O)O)NC(=O)[C@@H]2CCCN2C1=O [compound 167] (H-DCLGFMRKCIPDNDKCCRPNLVCSRTHKWCK[1Nal]VF-NH2; disulfide 2-17, 9-23, 16-30)",IC50,hNav1.5; IWQ Use Nav1.5 (μM),3.96 µM
same,IC50,"hNav1.3; Table 25, use, […]",1 nM
"CSCC[C@@H]1NC(=O)[C@H](Cc2ccccc2)NC(=O)CNC(=O)[C@H](CC(C)C)NC(=O)[C@@H](NC(=O)[C@@H](N)CC(=O)O)CSSC[C@@H]2NC(=O)[C@@H]3CSSC[C@@H](C(=O)N[C@@H](CCCCN)C(=O)N[C@@H](Cc4ccc(O)cc4)C(=O)N[C@H](C(=O)N[C@@H](Cc4ccccc4)C(N)=O)C(C)C)NC(=O)[C@H](Cc4c[nH]c5ccccc45)NC(=O)[C@H](CCCCN)NC(=O)[C@H](Cc4cnc[nH]4)NC(=O)[C@H]([C@@H](C)O)NC(=O)[C@H](CCCNC(=N)N)NC(=O)[C@H](CO)NC(=O)[C@H](CSSC[C@H](NC(=O)[C@H](CCCCN)NC(=O)[C@H](CCCNC(=N)N)NC1=O)C(=O)N[C@@H](Cc1ccc(O)cc1)C(=O)N1CCC[C@H]1C(=O)N[C@@H](CC(=O)O)C(=O)N[C@@H](CC(N)=O)C(=O)N[C@@H](CC(=O)O)C(=O)N[C@@H](CCCCN)C(=O)N3)NC(=O)[C@H](C(C)C)NC(=O)[C@H](CC(C)C)NC(=O)[C@H](CC(N)=O)NC(=O)[C@@H]1CCCN1C(=O)[C@H](CCCNC(=N)N)NC2=O [compound 299] (H-DCLGFMRKCYPDNDKCCRPNLVCSRTHKWCKYVF-NH2; disulfide 2-17, 9-23, 16-30)",IC50,hNav1.5; [1],5.41 µM
same,IC50,hNav1.3; Use,70 nM
"CSCC[C@@H]1NC(=O)[C@H](Cc2ccccc2)NC(=O)CNC(=O)[C@H](CC(C)C)NC(=O)[C@@H](NC(=O)[C@@H](N)CC(=O)O)CSSC[C@@H]2NC(=O)[C@@H]3CSSC[C@@H](C(=O)N[C@@H](CCCCN)C(=O)N[C@@H](Cc4ccc(O)cc4)C(=O)N[C@H](C(=O)N[C@@H](Cc4ccccc4)C(N)=O)C(C)C)NC(=O)[C@H](Cc4c[nH]c5ccccc45)NC(=O)[C@H](CCCCN)NC(=O)[C@H](Cc4cnc[nH]4)NC(=O)[C@H]([C@@H](C)O)NC(=O)[C@H](CCCNC(=N)N)NC(=O)[C@H](CO)NC(=O)[C@H](CSSC[C@H](NC(=O)[C@H](CCCCN)NC(=O)[C@H](CCCNC(=N)N)NC1=O)C(=O)N[C@@H](C(C)C)C(=O)N1CCC[C@H]1C(=O)N[C@@H](CC(=O)O)C(=O)N[C@@H](CC(N)=O)C(=O)N[C@@H](CC(=O)O)C(=O)N[C@@H](CCCCN)C(=O)N3)NC(=O)[C@H](C(C)C)NC(=O)[C@H](CC(C)C)NC(=O)[C@H](CC(N)=O)NC(=O)[C@@H]1CCCN1C(=O)[C@H](CCCNC(=N)N)NC2=O [compound 301] (H-DCLGFMRKCVPDNDKCCRPNLVCSRTHKWCKYVF-NH2; disulfide 2-17, 9-23, 16-30)",IC50,hNav1.5; [1],7.88 µM
same,IC50,hNav1.3; Use,90 nM
"CSCC[C@@H]1NC(=O)[C@H](Cc2ccccc2)NC(=O)CNC(=O)[C@H](CC(C)C)NC(=O)[C@@H](NC(=O)[C@@H](N)CC(=O)O)CSSC[C@@H]2NC(=O)[C@@H]3CSSC[C@@H](C(=O)N[C@@H](CCCCN)C(=O)N[C@@H](Cc4ccc(O)cc4)C(=O)N[C@H](C(=O)N[C@@H](Cc4ccccc4)C(N)=O)C(C)C)NC(=O)[C@H](Cc4c[nH]c5ccccc45)NC(=O)[C@H](CCCCN)NC(=O)[C@H](Cc4cnc[nH]4)NC(=O)[C@H]([C@@H](C)O)NC(=O)[C@H](CCCNC(=N)N)NC(=O)[C@H](CO)NC(=O)[C@H](CSSC[C@H](NC(=O)[C@H](CCCCN)NC(=O)[C@H](CCCNC(=N)N)NC1=O)C(=O)N[C@@H](Cc1ccccc1)C(=O)N1CCC[C@H]1C(=O)N[C@@H](CC(=O)O)C(=O)N[C@@H](CC(N)=O)C(=O)N[C@@H](CC(=O)O)C(=O)N[C@@H](CCCCN)C(=O)N3)NC(=O)[C@H](C(C)C)NC(=O)[C@H](CC(C)C)NC(=O)[C@H](CC(N)=O)NC(=O)[C@@H]1CCCN1C(=O)[C@H](CCCNC(=N)N)NC2=O [compound 302] (H-DCLGFMRKCFPDNDKCCRPNLVCSRTHKWCKYVF-NH2; disulfide 2-17, 9-23, 16-30)",IC50,hNav1.5; [1],5.33 µM
same,IC50,hNav1.3; Use,80 nM
"CSCC[C@@H]1NC(=O)[C@H](Cc2ccccc2)NC(=O)CNC(=O)[C@H](CC(C)C)NC(=O)[C@@H](NC(=O)[C@@H](N)CC(=O)O)CSSC[C@@H]2NC(=O)[C@@H]3CSSC[C@@H](C(=O)N[C@@H](CCCCN)C(=O)N[C@@H](Cc4ccc(O)cc4)C(=O)N[C@H](C(=O)N[C@@H](Cc4ccccc4)C(N)=O)C(C)C)NC(=O)[C@H](Cc4c[nH]c5ccccc45)NC(=O)[C@H](CCCCN)NC(=O)[C@H](Cc4cnc[nH]4)NC(=O)[C@H]([C@@H](C)O)NC(=O)[C@H](CCCNC(=N)N)NC(=O)[C@H](CO)NC(=O)[C@H](CSSC[C@H](NC(=O)[C@H](CCCCN)NC(=O)[C@H](CCCNC(=N)N)NC1=O)C(=O)N[C@@H](Cc1cnc[nH]1)C(=O)N1CCC[C@H]1C(=O)N[C@@H](CC(=O)O)C(=O)N[C@@H](CC(N)=O)C(=O)N[C@@H](CC(=O)O)C(=O)N[C@@H](CCCCN)C(=O)N3)NC(=O)[C@H](C(C)C)NC(=O)[C@H](CC(C)C)NC(=O)[C@H](CC(N)=O)NC(=O)[C@@H]1CCCN1C(=O)[C@H](CCCNC(=N)N)NC2=O [compound 304] (H-DCLGFMRKCHPDNDKCCRPNLVCSRTHKWCKYVF-NH2; disulfide 2-17, 9-23, 16-30)",IC50,hNav1.5; [1],6.36 µM
same,IC50,hNav1.3; Use,30 nM
"CSCC[C@@H]1NC(=O)[C@H](Cc2ccccc2)NC(=O)CNC(=O)[C@H](CC(C)C)NC(=O)[C@@H](NC(=O)[C@@H](N)CC(=O)O)CSSC[C@@H]2NC(=O)[C@@H]3CSSC[C@@H](C(=O)N[C@@H](CCCCN)C(=O)N[C@@H](Cc4ccc(O)cc4)C(=O)N[C@H](C(=O)N[C@@H](Cc4ccccc4)C(N)=O)C(C)C)NC(=O)[C@H](Cc4c[nH]c5ccccc45)NC(=O)[C@H](CCCCN)NC(=O)[C@H](Cc4cnc[nH]4)NC(=O)[C@H]([C@@H](C)O)NC(=O)[C@H](CCCNC(=N)N)NC(=O)[C@H](CO)NC(=O)[C@H](CSSC[C@H](NC(=O)[C@H](CCCCN)NC(=O)[C@H](CCCNC(=N)N)NC1=O)C(=O)N[C@@H](CO)C(=O)N1CCC[C@H]1C(=O)N[C@@H](CC(=O)O)C(=O)N[C@@H](CC(N)=O)C(=O)N[C@@H](CC(=O)O)C(=O)N[C@@H](CCCCN)C(=O)N3)NC(=O)[C@H](C(C)C)NC(=O)[C@H](CC(C)C)NC(=O)[C@H](CC(N)=O)NC(=O)[C@@H]1CCCN1C(=O)[C@H](CCCNC(=N)N)NC2=O [compound 305] (H-DCLGFMRKCSPDNDKCCRPNLVCSRTHKWCKYVF-NH2; disulfide 2-17, 9-23, 16-30)",IC50,hNav1.5; [1],4.64 µM
same,IC50,hNav1.3; Use,90 nM
"CC[C@H](C)[C@@H]1NC(=O)[C@@H]2CSSC[C@@H]3NC(=O)[C@H](C(C)C)NC(=O)[C@H](CC(C)C)NC(=O)[C@H](CC(N)=O)NC(=O)[C@@H]4CCCN4C(=O)[C@H](CCCCN(C)C)NC(=O)[C@H](CSSC[C@H](NC(=O)[C@@H](N)CC(=O)O)C(=O)N[C@@H](CC(C)C)C(=O)NCC(=O)N[C@@H](Cc4ccccc4)C(=O)N[C@@H](CCSC)C(=O)N[C@@H](CCCNC(=N)N)C(=O)N[C@@H](CCCCN)C(=O)N2)NC(=O)[C@H](CSSC[C@@H](C(=O)N[C@@H](CCCCN)C(=O)N[C@@H](Cc2ccc(O)cc2)C(=O)N[C@H](C(=O)N[C@@H](Cc2ccccc2)C(N)=O)C(C)C)NC(=O)[C@H](Cc2c[nH]c4ccccc24)NC(=O)[C@H](CCCCN)NC(=O)[C@H](Cc2cnc[nH]2)NC(=O)[C@H]([C@@H](C)O)NC(=O)[C@H](CCCNC(=N)N)NC(=O)[C@H](CO)NC3=O)NC(=O)[C@H](CCCCN)NC(=O)[C@H](CC(=O)O)NC(=O)[C@H](CC(N)=O)NC(=O)[C@H](CC(=O)O)NC(=O)[C@@H]2CCCN2C1=O [compound 314] (H-DCLGFMRKCIPDNDKCC[Lys(Me2)]PNLVCSRTHKWCKYVF-NH2; disulfide 2-17, 9-23, 16-30)",IC50,hNav1.5; [1],6.55 µM
same,IC50,hNav1.3; Use,80 nM
